{"source": "patent US4749790A", "about": "“Process for preparing H2 receptor antagonist ascorbate compounds” (priority 1985, dated 1988)", "key": {"pH of aqueous solution": {"assay": "pH of aqueous solution", "assay_type": "physicochemical"}, "[1]": {"assay": "Nitrosation in gastric juice or simulated gastric juice (Griess reagent, TLC)", "conditions": "for NC (nitrosocimetidine) found: 75 ml simulated gastric juice, 37° C., pH 1.0-3.5, ascorbate-nitrite 6:1 molar ratio"}, "[2]": {"assay": "Stability to ambient environment (air, light, oxidation)"}, "rats": {"tested_on": "rats", "conditions": "eight days treatment, 500 mg/kg; cited from earlier work"}, "[3]": {"conditions": "70° C.; 20 min (10% hydrochloric acid), 180 min (ascorbic acid); cited from earlier work"}, "[4]": {"conditions": "wide pH range; cited from earlier work"}, "[5]": {"tested_on": "desoxyribonucleic acid (DNA)", "conditions": "cimetidine 250 mg/kg with nitrite 80 mg/kg; cited from earlier work"}, "gastric carcinoma": {"tested_on": "gastric carcinoma", "conditions": "in vivo; cited from earlier work"}}, "note": "Like-named read-outs stand apart in the source and are kept apart here.", "data": [{"molecule": "CNC(=NC#N)NCCSCc1nc[nH]c1C", "note": "[Example 1, Cimetidine L-ascorbate]", "values": [{"measurement": "pH of aqueous solution", "setting": "pH of aqueous solution", "value": 4.5}, {"measurement": "outcome of relapse and improvement maintenance cases", "setting": "duodenal ulcer; maintenance doses 680 mg ascorbate or 860 mg diascorbate, one year continuously, two years with breaks", "value": "normality being achieved"}, {"measurement": "outcome in males with duodenal ulcer diagnosis", "setting": "duodenal ulcer; males aged 55-60 years, usual periods of cimetidine medication", "value": "back to normal"}, {"measurement": "water solubility (in words)", "setting": "Solubility in water", "value": "soluble in water"}, {"measurement": "NC (nitrosocimetidine) found", "setting": "[1]; listed as cimetidine ascorbate", "value": 0.18, "unit": "ppm"}]}, {"molecule": "CNC(=C[N+](=O)[O-])NCCSCc1ccc(CN(C)C)o1", "note": "[Example 8, Ranitidine L-ascorbate]", "values": [{"measurement": "pH of aqueous solution", "setting": "pH of aqueous solution", "value": 3.5}]}, {"molecule": "NC(N)=Nc1nc(CSCCC(N)=NS(N)(=O)=O)cs1", "note": "[Example 12, Famotidine L-ascorbate]", "values": [{"measurement": "pH of aqueous solution", "setting": "pH of aqueous solution", "value": 5.9}, {"measurement": "pH of aqueous solution", "setting": "pH of aqueous solution; listed as famotidine ascorbate", "value": 5.6}, {"measurement": "solubility", "setting": "Solubility in water; water, Solubility in water, room temperature where printed", "value": 75, "unit": "mg/mL"}, {"measurement": "stability to air, light, ambient conditions", "setting": "[2]", "value": "has to be preserved from the air and light"}]}, {"molecule": "Nc1n[s+]([O-])nc1NCCCOc1cccc(CN2CCCCC2)c1", "note": "[Example 14, CM.5 antagonist L-ascorbate]", "values": [{"measurement": "water solubility (in words)", "setting": "Solubility in water", "value": "water soluble"}, {"measurement": "stability to air, light, ambient conditions", "setting": "[2]", "value": "has to be preserved from the air and light"}]}, {"molecule": "Cc1ccc(Cc2c[nH]c(NCCSCc3ccc(CN(C)C)o3)nc2=O)cn1", "note": "[Example 15, CM.10 antagonist L-ascorbate]", "values": [{"measurement": "water solubility (in words)", "setting": "Solubility in water", "value": "water soluble"}]}, {"molecule": "CN/C(=N/CCSCc1nc[nH]c1C)NC#N", "note": "[Example 16, Cimetidine diascorbate]", "values": [{"measurement": "stability to air, light, ambient conditions", "setting": "[2]", "value": "has to be preserved from the air and light"}, {"measurement": "NC (nitrosocimetidine) found", "setting": "[1]", "value": 0.13, "unit": "ppm"}, {"measurement": "NC produced in cases of hyperchlorhydria", "setting": "[1]; abnormally high nitrite concentrations", "value": 0.08, "unit": "ppm"}]}, {"molecule": "CNC(=C[N+](=O)[O-])NCCSCc1ccc(CN(C)C)o1", "note": "[Example 18, Ranitidine diascorbate]", "values": [{"measurement": "TLC spot of nitroso derivative at Rf = 0.83", "setting": "[1]; gastric juice pH 1.5, 318 mg diascorbate, 18.2 mg sodium nitrite, 60 min", "value": "did not appear"}]}, {"molecule": "Cc1[nH]cnc1CSCCN=C(NC#N)N(C)N=O", "note": "[NC, nitrosocimetidine]", "values": [{"measurement": "toxic effect", "setting": "rats", "value": "no toxic effect"}]}, {"molecule": "O=C1O[C@H]([C@@H](O)CO)C(O)=C1O", "note": "[ascorbic acid, 3-oxo-L-gulofuranelactone (enolic form)]", "values": [{"measurement": "denitrosation", "setting": "[3]", "value": "innefective"}, {"measurement": "inhibition of N-nitroso compound formation", "setting": "[4]", "value": "most effective over a wide pH range"}]}, {"molecule": "CN/C(=N/CCSCc1nc[nH]c1C)NC#N", "note": "[cimetidine, N\"-cyano-N'-methyl-N-2-(5-methyl-1H-imidazol-4-yl)methylthioethylguanidine]", "values": [{"measurement": "evidence of DNA damage", "setting": "[5]", "value": "no evidence of desoxyribonucleic acid (DNA) damage"}, {"measurement": "gastric carcinoma related with treatment", "setting": "gastric carcinoma", "value": "appearance of a gastric carcinoma"}, {"measurement": "NCD (nitroso compound derivatives) determined", "setting": "[1]; 400 mg cimetidine, 36.4 mg sodium nitrite, 75 ml gastric juice, pH 1.5, 37° C., 60 min", "value": 100, "unit": "ppm"}]}, {"molecule": "Cl", "note": "[hydrochloric acid]", "values": [{"measurement": "denitrosation", "setting": "[3]", "value": "innefective"}]}, {"molecule": "CNC(=C[N+](=O)[O-])NCCSCc1ccc(CN(C)C)o1", "note": "[ranitidine, N-(2-(((5-((dimethylamino)methyl)-2-furanyl)methyl)thio)ethyl)N'-methyl-2-nitro-1,1-ethenediamine, reference compound]", "values": [{"measurement": "formation of nitroso compounds / nitrosatability", "setting": "[1]; gastric juice conditions", "value": "causes the formation of nitroso derivatives and nitrosated degradation products"}]}]}
